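Method: 48-hour compound exposure of cells in 96-well plates, five concentrations, linear interpolation of endpoints. TGI marks complete inhibition of growth.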
Experiments:
Test in all cases: inhibition of tumour cell growth, NCI panel, 48 h
ACHN renal = test system: ACHN renal
MOLT-4 leukemia = test system: MOLT-4 leukemia
SK-OV-3 ovarian = test system: SK-OV-3 ovarian
SNB-75 CNS = test system: SNB-75 CNS
SR leukemia = test system: SR leukemia
NCI-H460 lung = test system: NCI-H460 lung

Row | Compound | TGI (ACHN renal) | TGI (MOLT-4 leukemia) | TGI (SK-OV-3 ovarian) | TGI (SNB-75 CNS) | TGI (SR leukemia) | TGI (NCI-H460 lung)
1 | Cc1n[nH]c(=O)n1/N=C\CC/C=N\n1c(C)n[nH]c1=O | > 100 µM | > 100 µM | > 100 µM | > 100 µM | > 100 µM | –
2 | Cc1ccc(-c2c(C#N)c(N)nc3c2CCS(=O)(=O)c2ccccc2-3)cc1 | > 100 µM | – | – | 78.9 µM | – | > 100 µM
3 | O=C(NCCc1ccccc1)c1c(O)c2ccccc2[nH]c1=O | > 100 µM | > 100 µM | – | > 100 µM | > 100 µM | > 100 µM
4 | COc1ccc(C2(O)c3ccccc3C(=O)N(C)C2(O)c2ccc(OC)cc2)cc1 (configuration not stated) | – | > 100 µM | > 100 µM | – | > 100 µM | > 100 µM
5 | Nc1ncnc2c1cnn2Cc1cn(COCC(O)CO)nn1 (configuration not stated) | > 100 µM | – | > 100 µM | – | – | –
6 | C=CCCCC1CCCNC1=S (configuration not stated) | > 100 µM | > 100 µM | > 100 µM | > 100 µM | – | > 100 µM
7 | Cc1ccc2c(c1)-c1c(C#N)c(N)nc(-c3ccccc3)c1CCS2(=O)=O | > 100 µM | > 100 µM | 46 µM | 59.2 µM | – | > 100 µM
8 | CC(C)CCc1n[nH]c(=O)n1/N=C\c1ccccc1 | > 100 µM | > 100 µM | > 100 µM | > 100 µM | – | > 100 µM
9 | Clc1nc(NCCc2ccccc2)c2ncn(-c3ccccc3)c2n1 | 92.7 µM | 51 µM | 60.7 µM | 90.4 µM | – | 33.7 µM
10 | O=C(Cc1ccccc1)NCCCN(CCCCN(CCCNC(=O)Cc1ccccc1)C(=O)OCc1ccccc1)C(=O)OCc1ccccc1 | > 100 µM | > 100 µM | > 100 µM | – | > 100 µM | > 100 µM
11 | O=C(O)CC1OCC=C2CN3CCC45C6=CC(=O)C(=O)C([N+](=O)[O-])=C6NC4C1C2CC35 (configuration not stated) | > 100 µM | > 100 µM | > 100 µM | > 100 µM | – | > 100 µM
12 | O=S(=O)(O)c1ccc2c(N=Nc3ccc(F)cc3)c(O)c(S(=O)(=O)O)cc2c1 | > 100 µM | > 100 µM | > 100 µM | > 100 µM | > 100 µM | –
13 | COc1cc2c(cc1OC)C(C)N(C)c1c-2c(OC(C)=O)cc2cc(OC)c(OC)cc12 (configuration not stated) | 97 µM | > 100 µM | > 100 µM | > 79 µM | – | 27.6 µM
14 | CC(C)(C)OC(=O)N/N=C(/N)Cc1ccccc1 | > 100 µM | > 100 µM | > 100 µM | > 100 µM | > 100 µM | –
15 | O=C(CCCN1CCC2(CC1)CC(=O)N(N1CCCCCC1)C2=O)c1ccc(F)cc1 | > 100 µM | > 100 µM | > 100 µM | > 100 µM | > 100 µM | –
16 | c1ccc(C2OCC(OC3CCCCO3)CO2)cc1 (configuration not stated) | > 100 µM | 68.2 µM | > 100 µM | – | > 100 µM | > 100 µM
17 | C/C(=N\NC(=S)NC(C)(C)C)c1ccccn1 | – | – | 80.1 µM | > 100 µM | – | –
18 | Cn1cnc(N2CCCC2)c(C#N)c1=O | > 100 µM | > 100 µM | – | – | > 100 µM | > 100 µM
19 | CC1(C)OC(=O)C2(O1)C(=O)C1CCCCC12 (configuration not stated) | > 100 µM | > 100 µM | > 100 µM | – | – | –
20 | CC(=O)N(CN1C(=O)CCC1C(=O)O)c1cccc(O)c1 (configuration not stated) | > 100 µM | > 100 µM | > 100 µM | > 100 µM | – | > 100 µM
21 | Cc1ccc(S(=O)(=O)Nn2c(S)c(C#N)c(-c3ccc([N+](=O)[O-])cc3)c(C#N)c2=O)cc1 | > 100 µM | 47.7 µM | > 100 µM | > 100 µM | – | > 100 µM
22 | COc1ccc(C(=O)/C=C/c2cccnc2)cc1OC | 26.7 µM | 14.1 µM | 28.6 µM | 24.4 µM | 6.02 µM | –
23 | CC(C)/C(Cl)=N\OC(=O)Nc1ccc(F)cc1F | 8.53 µM | 3.99 µM | 30.8 µM | 33.6 µM | – | 43.1 µM
24 | COC(=O)C1(Cc2ccc3c(c2)CCC3)Cc2ccc3c(c2C1)CCC3 (configuration not stated) | 73.2 µM | > 100 µM | > 100 µM | > 100 µM | – | 73.2 µM
25 | COC(=O)C1CCC(=O)N1C(c1ccccc1)c1cc(OC)c(OC)c(OC)c1 (configuration not stated) | > 100 µM | 89.3 µM | > 100 µM | – | > 100 µM | > 100 µM
26 | CC(=O)N1N(c2ccc([N+](=O)[O-])cc2)C(=O)C1(C)C | 41.5 µM | 43.4 µM | > 100 µM | 37.7 µM | – | > 100 µM
27 | COC(=O)C1=C(C)NC(C)=C(C(=O)OC)C1c1cccc(NO)c1 | 26.8 µM | – | > 100 µM | – | > 100 µM | 31.4 µM
28 | N#Cc1[nH]c(=O)n(-c2cccc3ccccc23)c1N | > 10 µM | > 10 µM | > 10 µM | – | > 10 µM | > 10 µM
29 | CCOc1cc2c(cc1O)/C(=N/NS(=O)(=O)c1ccc(C)cc1)C[C@@H]1[C@@H]2CC[C@]2(C)[C@@H](O)CC[C@@H]12 | 81.2 µM | 7.04 µM | > 100 µM | 67.7 µM | – | > 100 µM

From PubChem BioAssay (NCI)
